In patent US10501460B2, “Heterocyclic compounds and uses thereof” (Plexxikon Inc., priority 2013, dated 2019):

Tests used:
MV-4-11 = test: Oncology cell growth assay MV-4-11 (CellTiter Glo, 72 hours); type: cell-based; details: Homo sapiens, MV4-11, 72 h; MV-4-11 cell growth inhibitory activity, 3d
In short: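 Growth read by CellTiter Glo luminescence after 72 h compound exposure of MV-4-11 AML cells (MLL-AF4), using 8-point 1:3 series to 10 μM final in 0.2% DMSO. Data normalized to DMSO wells, four-parameter fit yields pIC50.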

bromodomain = test: Bromodomain cell assays of Example 40 (at least one of them); type: cell-based; details: in at least one of the bromodomain cell assays described in Example 40
In short: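 Growth inhibition: 3000 MV-4-11, MOLM-13, MM.1S or neuroblastoma cells/well got an 8-point 1:3 series from 10 μM top (0.2% DMSO) for 72 h, then CellTiter-Glo luminescence. Myc reporter: MV-4-11 with E-box firefly luciferase, 24 h exposure, One-Glo luminescence plus CellTiter-Fluo cell count. pIC50 from four-parameter fit.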

Row | IC50 (MV-4-11) | IC50 (bromodomain) | Compound
1 | ≤ 1 µM | < 10 µM | Cc1noc(C)c1-c1cnc2c(-c3cnn(C)c3)cn([C@@H](C)c3ccccc3)c2c1 [P-0222, 3,5-dimethyl-4-[3-(1-methylpyrazol-4-yl)-1-[(1S)-1-phenylethyl]pyrrolo[3,2-b]pyridin-6-yl]isoxazole]
2 | ≤ 1 µM | < 10 µM | Cc1noc(C)c1-c1cnc2c(-c3cnn(C4CCCCO4)c3)cn(S(=O)(=O)c3ccccc3)c2c1 (stereo not drawn) [P-0168, 4-[1-(benzenesulfonyl)-3-(1-tetrahydropyran-2-ylpyrazol-4-yl)pyrrolo[3,2-b]pyridin-6-yl]-3,5-dimethyl-isoxazole]
3 | ≤ 1 µM | < 10 µM | CCC(c1cn(C)c2ncc(-c3c(C)noc3C)cc12)C1CCC(F)(F)CC1 (stereo not drawn) [P-0118, 4-[3-[1-(4,4-difluorocyclohexyl)propyl]-1-methyl-pyrrolo[2,3-b]pyridin-5-yl]-3,5-dimethyl-isoxazole]
4 | ≤ 1 µM | < 10 µM | Cc1noc(C)c1-c1cnc2c(-c3cnn(C4CC4)c3)cn(C(C)c3ccccc3)c2c1 (stereo not drawn) [P-0216, 4-[3-(1-cyclopropylpyrazol-4-yl)-1-(1-phenylethyl)pyrrolo[3,2-b]pyridin-6-yl]-3,5-dimethyl-isoxazole]
5 | 1 to 10 µM | < 10 µM | Cc1noc(C)c1-c1cnc2[nH]cc(CC3CCS(=O)(=O)CC3)c2c1 [P-0098, 4-[[5-(3,5-dimethylisoxazol-4-yl)-1H-pyrrolo[2,3-b]pyridin-3-yl]methyl]thiane 1,1-dioxide]
6 | ≤ 1 µM | < 10 µM | Cc1noc(C)c1-c1cnc2[nH]c(C)c(Cc3cccnc3)c2c1 [P-0005, 3,5-dimethyl-4-[2-methyl-3-(3-pyridylmethyl)-1H-pyrrolo[2,3-b]pyridin-5-yl]isoxazole]
7 | 1 to 10 µM | < 10 µM | Cc1noc(C)c1-c1cnc2c(c1)c(CC1CCN(S(=O)(=O)c3ccccc3)CC1)cn2C [P-0113, 4-[3-[[1-(benzenesulfonyl)-4-piperidyl]methyl]-1-methyl-pyrrolo[2,3-b]pyridin-5-yl]-3,5-dimethyl-isoxazole]
8 | ≤ 1 µM | < 10 µM | Cc1noc(C)c1-c1cnc2c(I)cn(C(C)c3ccccc3)c2c1 (stereo not drawn) [P-0224, 4-[3-iodo-1-(1-phenylethyl)pyrrolo[3,2-b]pyridin-6-yl]-3,5-dimethyl-isoxazole]
9 | ≤ 1 µM | < 10 µM | Cc1noc(C)c1-c1cnc2c(-c3cnn(C(F)F)c3)cn(S(=O)(=O)C3CCC3)c2c1 [P-0134, 4-[1-cyclobutylsulfonyl-3-[1-(difluoromethyl)pyrazol-4-yl]pyrrolo[3,2-b]pyridin-6-yl]-3,5-dimethyl-isoxazole]
10 | ≤ 1 µM | < 10 µM | Cc1noc(C)c1-c1cnc2c(-c3cnn(C(F)F)c3)cn(S(=O)(=O)c3ccccc3)c2c1 [P-0131, 4-[1-(benzenesulfonyl)-3-[1-(difluoromethyl)pyrazol-4-yl]pyrrolo[3,2-b]pyridin-6-yl]-3,5-dimethyl-isoxazole]
11 | ≤ 1 µM | < 10 µM | CCCS(=O)(=O)n1cc(-c2cnn(CCOC)c2)c2ncc(-c3c(C)noc3C)cc21 [P-0152, 4-[3-[l-(2-methoxyethyl)pyrazol-4-yl]-1-propylsulfonyl-pyrrolo [3,2-b]pyridin-6-yl]-3,5-dimethyl-isoxazole]
12 | ≤ 1 µM | < 10 µM | Cc1noc(C)c1-c1cnc2c(-c3cnn(CC(F)(F)F)c3)cn(S(=O)(=O)c3ccccc3)c2c1 [P-0146, 4-[1-(benzenesulfonyl)-3-[1-(2,2,2-trifluoroethyl)pyrazol-4-yl]pyrrolo[3,2-b]pyridin-6-yl]-3,5-dimethyl-isoxazole]
13 | 1 to 10 µM | < 10 µM | Cc1noc(C)c1-c1cnc2[nH]cc(C(c3ccc(F)cc3)(C3CC3)C3CC3)c2c1 [P-0085, 4-[3-[dicyclopropyl-(4-fluorophenyl)methyl]-1H-pyrrolo[2,3-b]pyridin-5-yl]-3,5-dimethyl-isoxazole]
14 | ≤ 1 µM | < 10 µM | Cc1nn(C)cc1-c1cn(C(C)c2ccccc2)c2cc(-c3c(C)noc3C)cnc12 (stereo not drawn) [P-0205, 4-[3-(1,3-dimethylpyrazol-4-yl)-1-(1-phenylethyl)pyrrolo[3,2-b]pyridin-6-yl]-3,5-dimethyl-isoxazole]
15 | ≤ 1 µM | < 10 µM | Cc1noc(C)c1-c1cnc2c(-c3cnn(C)c3)cn(S(=O)(=O)c3ccccc3F)c2c1 [P-0121, 4-[1-(2-fluorophenyl)sulfonyl-3-(1-methylpyrazol-4-yl)pyrrolo[3,2-b]pyridin-6-yl]-3,5-dimethyl-isoxazole]
16 | ≤ 1 µM | < 10 µM | COC(c1ccccc1Cl)c1c[nH]c2ncc(-c3c(C)noc3C)cc12 (stereo not drawn) [P-0020, 4-[3-[(2-chlorophenyl)-methoxy-methyl]-1H-pyrrolo[2,3-b]pyridin-5-yl]-3,5-dimethyl-isoxazole]
17 | ≤ 1 µM | < 10 µM | Cc1noc(C)c1-c1cnc2[nH]cc(C(O)c3c(F)cccc3Cl)c2c1 (stereo not drawn) [P-0021, (2-chloro-6-fluoro-phenyl)-[5-(3,5-dimethylisoxazol-4-yl)-1H-pyrrolo[2,3-b]pyridin-3-yl] methanol]
18 | ≤ 1 µM | < 10 µM | Cc1noc(C)c1-c1cnc2c(c1)c(S(=O)(=O)c1ccccc1)cn2-c1cnn(C)c1 [P-0185, 4-[3-(benzenesulfonyl)-1-(1-methylpyrazol-4-yl)pyrrolo[2,3-b]pyridin-5-yl]-3,5-dimethyl-isoxazole]
19 | ≤ 1 µM | < 10 µM | CCCS(=O)(=O)n1cc(-c2cnn(C)c2)c2ncc(-c3c(C)noc3C)cc21 [P-0111, 3,5-dimethyl-4-[3-(1-methylpyrazol-4-yl)-1-propylsulfonyl-pyrrolo [3,2-b]pyridin-6-yl] isoxazole]
20 | ≤ 1 µM | < 10 µM | Cc1noc(C)c1-c1cnc2c(-c3cnn(CC(F)(F)F)c3)cn(S(=O)(=O)C3CCCC3)c2c1 [P-0149, 4-[1-cyclopentylsulfonyl-3-[1-(2,2,2-trifluoroethyl)pyrazol-4-yl]pyrrolo[3,2-b]pyridin-6-yl]-3,5-dimethyl-isoxazole]
21 | 1 to 10 µM | < 10 µM | Cc1noc(C)c1-c1cnc2[nH]cc(C3=CCC(F)(F)CC3)c2c1 [P-0029, 4-[3-(4,4-difluorocyclohexen-1-yl)-1H-pyrrolo[2,3-b]pyridin-5-yl]-3,5-dimethyl-isoxazole]
22 | ≤ 1 µM | < 10 µM | [2H]C([2H])(C1CCC(F)(F)CC1)n1cc(-c2cnn(C(F)F)c2)c2ncc(-c3c(C)noc3C)cc21 [P-0219, 4-[1-[dideuterio-(4,4-difluorocyclohexyl)methyl]-3-[1-(difluoromethyl)pyrazol-4-yl]pyrrolo[3,2-b]pyridin-6-yl]-3,5-dimethyl-isoxazole]
23 | ≤ 1 µM | < 10 µM | Cc1noc(C)c1-c1cnc2c(C#CCO)cn(S(=O)(=O)C3CCCC3)c2c1 [P-0156, 3-[1-cyclopentylsulfonyl-6-(3,5-dimethylisoxazol-4-yl)pyrrolo[3,2-b]pyridin-3-yl]prop-2-yn-1-ol]
24 | ≤ 1 µM | < 10 µM | Cc1noc(C)c1-c1cnc2[nH]cc(Cc3cccnc3)c2c1 [P-0003, 3,5-dimethyl-4-[3-(3-pyridylmethyl)-1H-pyrrolo[2,3-b]pyridin-5-yl]isoxazole]
